# Test results from ChEMBL document CHEMBL5465560, “Selectivity Literature for EUbOPEN Chemogenomic Library” (2024).
# Columns and labels:
# [1] = molecular target: T1, Serine/threonine-protein kinase tousled-like 1 (Homo sapiens) (UniProt Q9UKI8); test: Selectivity interaction (KinomeScan (DiscoverX)) EUB0000045b TLK1
# T1 sequence (whole entry): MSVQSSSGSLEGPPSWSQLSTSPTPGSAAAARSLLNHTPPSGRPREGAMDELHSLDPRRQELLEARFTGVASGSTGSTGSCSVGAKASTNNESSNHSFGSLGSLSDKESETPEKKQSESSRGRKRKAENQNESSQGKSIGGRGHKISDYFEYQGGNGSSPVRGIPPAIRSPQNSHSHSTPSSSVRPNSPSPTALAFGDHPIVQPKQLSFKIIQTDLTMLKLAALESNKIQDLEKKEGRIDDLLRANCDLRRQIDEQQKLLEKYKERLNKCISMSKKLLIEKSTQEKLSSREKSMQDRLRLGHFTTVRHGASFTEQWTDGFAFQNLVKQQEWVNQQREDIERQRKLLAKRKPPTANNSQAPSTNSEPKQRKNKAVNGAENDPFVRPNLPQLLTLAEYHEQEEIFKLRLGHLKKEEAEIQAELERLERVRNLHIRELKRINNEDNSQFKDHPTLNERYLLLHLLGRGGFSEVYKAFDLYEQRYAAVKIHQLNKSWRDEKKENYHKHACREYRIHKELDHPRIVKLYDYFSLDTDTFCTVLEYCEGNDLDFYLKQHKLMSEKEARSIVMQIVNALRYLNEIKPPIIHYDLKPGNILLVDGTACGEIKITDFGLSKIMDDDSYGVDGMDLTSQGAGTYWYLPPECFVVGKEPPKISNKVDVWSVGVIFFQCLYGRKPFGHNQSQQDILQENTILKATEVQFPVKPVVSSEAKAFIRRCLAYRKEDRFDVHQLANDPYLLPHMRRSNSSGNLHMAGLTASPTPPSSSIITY
# [2] = molecular target: Tyrosine-protein kinase JAK1 (Homo sapiens, UniProt P23458); test: Selectivity interaction (Antiproliferative activity against Tel-kinase transformed Ba/F3 cell line) EUB0000045b JAK1; assay type: cell-based; details: BaF3
# Chain of Tyrosine-protein kinase JAK1 (P23458 whole entry): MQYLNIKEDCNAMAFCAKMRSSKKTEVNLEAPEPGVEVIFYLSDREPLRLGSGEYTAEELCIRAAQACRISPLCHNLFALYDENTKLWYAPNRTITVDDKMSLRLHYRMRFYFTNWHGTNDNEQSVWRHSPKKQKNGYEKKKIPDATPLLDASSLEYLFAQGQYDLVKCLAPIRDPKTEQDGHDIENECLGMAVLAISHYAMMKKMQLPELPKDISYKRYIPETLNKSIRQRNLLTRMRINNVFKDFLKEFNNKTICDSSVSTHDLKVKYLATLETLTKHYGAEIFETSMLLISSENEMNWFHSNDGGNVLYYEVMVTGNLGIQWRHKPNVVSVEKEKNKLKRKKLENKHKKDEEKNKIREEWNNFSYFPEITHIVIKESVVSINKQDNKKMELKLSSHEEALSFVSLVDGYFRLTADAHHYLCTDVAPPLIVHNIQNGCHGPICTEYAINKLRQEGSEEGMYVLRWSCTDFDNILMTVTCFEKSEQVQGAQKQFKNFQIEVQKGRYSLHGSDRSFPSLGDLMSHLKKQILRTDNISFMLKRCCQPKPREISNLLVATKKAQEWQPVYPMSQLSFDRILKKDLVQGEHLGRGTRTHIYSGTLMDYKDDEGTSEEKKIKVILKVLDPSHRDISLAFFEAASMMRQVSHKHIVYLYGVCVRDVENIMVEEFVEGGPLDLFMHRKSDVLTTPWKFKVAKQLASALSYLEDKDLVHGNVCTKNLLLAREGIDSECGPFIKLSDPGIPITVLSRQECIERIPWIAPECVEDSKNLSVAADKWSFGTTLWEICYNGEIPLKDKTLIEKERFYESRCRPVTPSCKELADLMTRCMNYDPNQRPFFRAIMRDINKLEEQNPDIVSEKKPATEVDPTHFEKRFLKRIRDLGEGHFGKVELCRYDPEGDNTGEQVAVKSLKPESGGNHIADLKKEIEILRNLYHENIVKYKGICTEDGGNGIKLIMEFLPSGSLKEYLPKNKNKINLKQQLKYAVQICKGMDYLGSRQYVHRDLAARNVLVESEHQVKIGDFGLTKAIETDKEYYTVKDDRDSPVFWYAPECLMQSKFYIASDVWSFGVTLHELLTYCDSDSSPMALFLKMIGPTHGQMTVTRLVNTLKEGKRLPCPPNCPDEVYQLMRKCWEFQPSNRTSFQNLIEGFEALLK
# [3] = molecular target: Serine/threonine-protein kinase SIK1 (Homo sapiens) (UniProt P57059); test: Selectivity interaction (KinomeScan (DiscoverX)) EUB0000695a SIK1; details: at 100 nM
# [4] = molecular target: Tyrosine-protein kinase receptor UFO (Homo sapiens) (UniProt P30530); test: Selectivity interaction (KinomeScan (DiscoverX)) EUB0001079a AXL; details: at 1 µM
# Chain of Tyrosine-protein kinase receptor UFO (Homo sapiens) (P30530 whole entry): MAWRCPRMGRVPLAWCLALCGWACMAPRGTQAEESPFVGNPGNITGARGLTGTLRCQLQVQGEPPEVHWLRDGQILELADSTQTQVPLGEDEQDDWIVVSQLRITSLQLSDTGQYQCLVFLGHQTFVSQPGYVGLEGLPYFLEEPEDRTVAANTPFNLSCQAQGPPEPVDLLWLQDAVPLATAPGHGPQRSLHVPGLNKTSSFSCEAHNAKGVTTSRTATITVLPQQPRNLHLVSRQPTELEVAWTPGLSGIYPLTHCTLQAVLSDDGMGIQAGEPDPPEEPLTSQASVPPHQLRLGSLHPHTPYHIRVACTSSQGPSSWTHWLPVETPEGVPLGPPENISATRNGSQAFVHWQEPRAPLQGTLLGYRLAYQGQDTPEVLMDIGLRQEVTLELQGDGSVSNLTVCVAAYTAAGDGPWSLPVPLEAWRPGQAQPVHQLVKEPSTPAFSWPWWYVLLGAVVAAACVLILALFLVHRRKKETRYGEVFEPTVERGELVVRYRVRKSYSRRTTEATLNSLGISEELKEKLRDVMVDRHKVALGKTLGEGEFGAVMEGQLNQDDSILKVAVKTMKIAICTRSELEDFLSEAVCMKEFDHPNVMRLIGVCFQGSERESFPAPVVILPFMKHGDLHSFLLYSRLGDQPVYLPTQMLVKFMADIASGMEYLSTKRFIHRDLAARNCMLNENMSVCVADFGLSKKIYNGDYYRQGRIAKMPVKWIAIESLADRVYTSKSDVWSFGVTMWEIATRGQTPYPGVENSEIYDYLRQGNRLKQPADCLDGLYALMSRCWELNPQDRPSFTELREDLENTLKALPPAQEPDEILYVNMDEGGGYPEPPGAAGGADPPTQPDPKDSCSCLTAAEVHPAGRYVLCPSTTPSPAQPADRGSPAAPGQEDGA
# [5] = molecular target: Serine/threonine-protein kinase PAK 3 (Homo sapiens) (UniProt O75914); test: Selectivity interaction (KinomeScan (DiscoverX)) EUB0001079a PAK3; details: at 1 µM
# Chain of Serine/threonine-protein kinase PAK 3 (Homo sapiens) (O75914 whole entry, looked up): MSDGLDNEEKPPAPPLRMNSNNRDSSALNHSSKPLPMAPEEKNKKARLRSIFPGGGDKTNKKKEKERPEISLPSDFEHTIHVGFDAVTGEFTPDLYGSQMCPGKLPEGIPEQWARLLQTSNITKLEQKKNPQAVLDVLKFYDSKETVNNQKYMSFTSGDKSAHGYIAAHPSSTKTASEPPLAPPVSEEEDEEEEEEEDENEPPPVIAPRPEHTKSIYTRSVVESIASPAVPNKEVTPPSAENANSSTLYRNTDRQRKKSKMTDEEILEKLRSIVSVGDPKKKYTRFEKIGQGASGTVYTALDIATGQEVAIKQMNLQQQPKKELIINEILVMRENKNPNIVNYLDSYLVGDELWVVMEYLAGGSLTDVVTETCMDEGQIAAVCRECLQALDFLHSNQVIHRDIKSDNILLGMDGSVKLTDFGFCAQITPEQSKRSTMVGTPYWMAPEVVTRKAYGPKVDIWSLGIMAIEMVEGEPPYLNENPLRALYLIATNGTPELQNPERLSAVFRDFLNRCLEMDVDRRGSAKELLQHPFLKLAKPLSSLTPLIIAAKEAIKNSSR
# [6] = test system: Tyrosine-protein kinase ABL1 (Homo sapiens), P00519 [T315I]; test: Selectivity interaction (KinomeScan (DiscoverX)) EUB0000666a ABL1; details: at 10 µM
# [7] = molecular target: T2, Serine/threonine-protein kinase 3 (Homo sapiens) (UniProt Q13188); test: Selectivity interaction (KinomeScan (DiscoverX)) EUB0000666a STK3; details: at 10 µM
# T2 sequence (whole entry): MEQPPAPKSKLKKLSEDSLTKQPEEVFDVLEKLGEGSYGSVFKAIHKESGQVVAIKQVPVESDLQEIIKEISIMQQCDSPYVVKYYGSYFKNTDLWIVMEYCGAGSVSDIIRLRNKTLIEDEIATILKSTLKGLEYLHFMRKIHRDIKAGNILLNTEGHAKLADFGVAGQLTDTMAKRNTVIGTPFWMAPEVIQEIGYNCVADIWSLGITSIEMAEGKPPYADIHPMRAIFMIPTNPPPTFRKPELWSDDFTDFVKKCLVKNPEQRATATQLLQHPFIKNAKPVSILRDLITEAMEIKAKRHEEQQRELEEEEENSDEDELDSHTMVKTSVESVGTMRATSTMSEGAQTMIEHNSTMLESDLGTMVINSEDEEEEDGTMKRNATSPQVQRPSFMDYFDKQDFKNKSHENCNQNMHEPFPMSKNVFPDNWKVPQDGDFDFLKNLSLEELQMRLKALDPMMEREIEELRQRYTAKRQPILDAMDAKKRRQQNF
# [8] = molecular target: T3, Muscarinic acetylcholine receptor M1 (Homo sapiens) (UniProt P11229); test: Selectivity interaction (Eurofins CEREP Diversity Profile (receptors and ion channels)) EUB0000279b CHRM1; details: at 10 µM
# T3 sequence (whole entry): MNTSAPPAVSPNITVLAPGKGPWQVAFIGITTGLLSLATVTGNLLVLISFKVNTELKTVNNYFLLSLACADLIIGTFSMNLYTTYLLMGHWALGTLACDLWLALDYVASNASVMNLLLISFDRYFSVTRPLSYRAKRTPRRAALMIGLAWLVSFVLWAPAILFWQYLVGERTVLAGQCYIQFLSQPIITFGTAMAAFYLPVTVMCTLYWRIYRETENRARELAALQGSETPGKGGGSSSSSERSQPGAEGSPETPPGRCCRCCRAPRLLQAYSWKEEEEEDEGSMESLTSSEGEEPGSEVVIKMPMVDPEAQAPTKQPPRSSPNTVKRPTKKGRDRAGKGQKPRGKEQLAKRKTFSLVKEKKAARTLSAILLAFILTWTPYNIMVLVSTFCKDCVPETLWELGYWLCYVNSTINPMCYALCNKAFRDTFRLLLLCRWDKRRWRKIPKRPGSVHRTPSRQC
# [9] = molecular target: Serine/threonine-protein kinase Nek4 (Homo sapiens) (UniProt P51957); test: Selectivity interaction (ProQinase) EUB0000171b NEK4
# Chain of Serine/threonine-protein kinase Nek4 (Homo sapiens) (P51957 whole entry, looked up, canonical isoform): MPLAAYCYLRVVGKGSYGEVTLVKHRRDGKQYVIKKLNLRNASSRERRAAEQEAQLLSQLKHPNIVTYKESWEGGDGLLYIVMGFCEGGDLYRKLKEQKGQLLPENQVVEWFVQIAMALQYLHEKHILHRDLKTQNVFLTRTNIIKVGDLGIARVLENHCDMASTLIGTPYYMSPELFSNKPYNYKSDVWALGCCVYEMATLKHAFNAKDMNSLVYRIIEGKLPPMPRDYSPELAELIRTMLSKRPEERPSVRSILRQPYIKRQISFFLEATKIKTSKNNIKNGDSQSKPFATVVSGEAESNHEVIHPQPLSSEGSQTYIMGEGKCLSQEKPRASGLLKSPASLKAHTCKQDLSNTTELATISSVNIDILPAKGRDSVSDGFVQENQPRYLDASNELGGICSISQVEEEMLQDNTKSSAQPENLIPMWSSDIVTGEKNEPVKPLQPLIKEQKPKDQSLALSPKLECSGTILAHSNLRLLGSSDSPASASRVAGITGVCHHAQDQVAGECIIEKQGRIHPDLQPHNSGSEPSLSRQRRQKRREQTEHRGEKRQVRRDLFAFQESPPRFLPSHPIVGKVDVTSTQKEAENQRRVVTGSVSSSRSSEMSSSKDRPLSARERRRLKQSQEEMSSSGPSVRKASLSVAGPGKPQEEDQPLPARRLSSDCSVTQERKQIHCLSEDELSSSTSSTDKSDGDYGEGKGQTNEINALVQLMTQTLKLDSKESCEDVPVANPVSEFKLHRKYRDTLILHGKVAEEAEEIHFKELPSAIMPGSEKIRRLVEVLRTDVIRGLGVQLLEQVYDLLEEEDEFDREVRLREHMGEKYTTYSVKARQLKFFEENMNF
# [10] = molecular target: Casein kinase I isoform gamma-3 (Homo sapiens) (UniProt Q9Y6M4); test: Selectivity interaction (ProQinase) EUB0000171b CSNK1G3
# Chain of Casein kinase I isoform gamma-3 (Homo sapiens) (Q9Y6M4 whole entry, looked up, canonical isoform): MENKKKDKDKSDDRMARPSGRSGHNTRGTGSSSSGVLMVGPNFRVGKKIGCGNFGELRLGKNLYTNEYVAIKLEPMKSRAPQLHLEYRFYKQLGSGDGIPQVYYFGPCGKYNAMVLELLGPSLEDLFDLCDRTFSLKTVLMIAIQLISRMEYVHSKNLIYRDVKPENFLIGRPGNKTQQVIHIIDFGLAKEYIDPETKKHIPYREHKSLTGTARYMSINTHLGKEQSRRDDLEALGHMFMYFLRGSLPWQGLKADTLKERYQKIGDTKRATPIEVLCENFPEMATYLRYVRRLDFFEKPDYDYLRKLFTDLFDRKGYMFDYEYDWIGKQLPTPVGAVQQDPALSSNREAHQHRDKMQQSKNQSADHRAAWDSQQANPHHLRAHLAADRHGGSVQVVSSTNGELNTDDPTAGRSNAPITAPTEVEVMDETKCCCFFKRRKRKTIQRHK
# [11] = molecular target: SRSF protein kinase 2 (Homo sapiens) (UniProt P78362); test: Selectivity interaction (SelectScreen profiling (Invitrogen)) EUB0000607a SRPK2; details: at 2 µM
# Chain of SRSF protein kinase 2 (Homo sapiens) (P78362 whole entry, looked up): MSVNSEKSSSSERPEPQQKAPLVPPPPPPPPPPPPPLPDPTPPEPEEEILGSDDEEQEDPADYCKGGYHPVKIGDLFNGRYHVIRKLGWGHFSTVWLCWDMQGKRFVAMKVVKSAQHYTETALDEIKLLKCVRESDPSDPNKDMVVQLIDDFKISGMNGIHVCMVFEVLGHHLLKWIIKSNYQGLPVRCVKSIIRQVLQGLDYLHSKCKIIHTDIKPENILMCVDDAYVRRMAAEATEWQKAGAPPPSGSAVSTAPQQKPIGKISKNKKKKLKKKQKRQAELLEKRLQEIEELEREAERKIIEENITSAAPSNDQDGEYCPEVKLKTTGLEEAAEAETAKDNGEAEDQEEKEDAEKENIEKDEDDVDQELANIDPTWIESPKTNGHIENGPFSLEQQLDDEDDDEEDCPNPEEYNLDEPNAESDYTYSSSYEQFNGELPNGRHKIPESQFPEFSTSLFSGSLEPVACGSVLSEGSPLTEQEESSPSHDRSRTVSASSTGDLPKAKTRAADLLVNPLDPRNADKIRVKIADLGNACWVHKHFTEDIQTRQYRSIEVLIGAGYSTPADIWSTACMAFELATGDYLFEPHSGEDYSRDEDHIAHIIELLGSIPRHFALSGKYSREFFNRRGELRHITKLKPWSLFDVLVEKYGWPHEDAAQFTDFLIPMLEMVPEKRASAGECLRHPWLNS
# [12] = molecular target: T4, Tyrosine-protein kinase TXK (Homo sapiens) (UniProt P42681); test: Selectivity interaction (KinomeScan (DiscoverX)) EUB0000607a TXK; details: at 10 µM
# T4 sequence (whole entry): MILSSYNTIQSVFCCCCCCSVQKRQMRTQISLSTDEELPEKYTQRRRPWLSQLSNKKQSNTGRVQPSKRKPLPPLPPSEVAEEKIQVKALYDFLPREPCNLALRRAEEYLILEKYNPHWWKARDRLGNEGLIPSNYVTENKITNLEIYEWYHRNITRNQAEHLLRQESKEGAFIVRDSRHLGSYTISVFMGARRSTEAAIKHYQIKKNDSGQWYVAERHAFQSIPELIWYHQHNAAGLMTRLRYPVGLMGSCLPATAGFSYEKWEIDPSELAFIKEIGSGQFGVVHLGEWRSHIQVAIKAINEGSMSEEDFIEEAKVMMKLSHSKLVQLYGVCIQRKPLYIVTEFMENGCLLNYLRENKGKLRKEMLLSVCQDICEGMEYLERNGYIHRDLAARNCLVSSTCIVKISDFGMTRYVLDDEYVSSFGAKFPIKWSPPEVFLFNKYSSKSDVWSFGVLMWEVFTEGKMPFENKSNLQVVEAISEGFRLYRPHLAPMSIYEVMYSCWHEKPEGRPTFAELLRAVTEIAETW
compound,measurement,setting,value
C=CC(=O)Nc1cc(-n2c(=O)ccc3cnc4ccc(-c5ccc(NS(C)(=O)=O)cc5)cc4c32)ccc1C,% of control,[1]; at 1 µM,86%
same,% of control,[1]; at 10 µM,96%
same,GIC50,[2],4.92 µM
Cc1cc(F)c(C(=O)Nc2cccc(-c3nncn3C(C)C)n2)cc1-n1cnc(C2CC2)c1,% of control,[3],94%
Nc1cnc(N2CCc3cc(S(=O)(=O)Nc4c(F)cc(Cl)cc4F)cc(N4CCCC4=O)c32)nc1 [TP-020n],% of control,[4],69%
same,% of control,[5],100%
O=C(NOC[C@H](O)CO)c1ccc(F)c(F)c1Nc1ccc(I)cc1F,% of control,[6],86%
same,% of control,[7],90%
CC(=O)c1cc(-c2ccccc2OCC2CC2)c2ncccn12,% of control,[8],115%
C=CC(=O)Nc1cccc(C(=O)Nc2ccc(Nc3cc(-c4[nH]c(SC)nc4C)ccn3)cc2)c1,% of control,[9]; at 1 µM,79%
same,% of control,[9]; at 5 µM,51%
same,% of control,[10]; at 1 µM,38%
same,% of control,[10]; at 5 µM,12%
CNC(=O)Nc1ccc(-c2nc(N3CC4CCC(C3)O4)c3cnn(C4CCC5(CC4)OCCO5)c3n2)cc1,% of inhibition,[11],1%
same,% of control,[12],94%
